Data on one compound can be found in US11181447B2, “Apparatus and method for determination of the fine particle dose of a powder inhalation formulation” (NANOPHARM LIMITED, priority 2016, dated 2021).

The series in a line: Paddle dissolution test (USP 711) of the aerosol dose collected on a filter in the apparatus of the invention. The class given is physicochemical. Particulars: drug loading 50-500 μg, surface coverage 3.89-38.92 μg/cm^2; 1, 2, 5 and 10 actuations; DPI and MDI. An excerpt:
In accordance with one embodiment of the invention, collected particles are subjected to a dissolution test. Dissolution tests are widely practised in the art and the selection of suitable dissolution media and methods for particles collected from a given drug formulation are a routine matter for those skilled in the art. One such test, which may be expediently used, is the paddle dissolution test (US Pharmocopeial Convention 2011, 711, Dissolution, Paddle Apparatus). Illustrative commonly used dissolution media include e.g. phosphate buffered saline (PBS) solution either with or without the addition of a surfactant (e.g. Tween 20, Tween 80, SDS etc.). The solution can be chemically analysed, for example by HPLC, to determine the mass collected.
Collection of the samples of FIGS. 7A and 7B was accomplished in an apparatus according to FIG. 4 in which a glass microfibre filter (Pall Corporation, A/E filter) having a nominal filter pore size of 1 μm was used. The reference scale on each image of FIGS. 7A and 7B corresponds to 10 μm.
In each run, after the relevant number of doses had been delivered into the device, the filter was removed and the collected mass dissolved in phosphate buffered saline (PBS) solution using the paddle dissolution method (USP 711, 2011) and chemically analysed by HPLC to determine the mass collected. […]

Regarding `CCC(=O)O[C@]1(C(=O)SCF)[C@H](C)C[C@H]2[C@@H]3C[C@H](F)C4=CC(=O)C=C[C@]4(C)[C@@]3(F)[C@@H](O)C[C@@]21C` [fluticasone propionate], the “dependence of dissolution release profiles on drug loading” value is recorded as “independent of drug loading”.
